{"source": "ChEMBL document CHEMBL1155339", "about": "“Characterization of alpha-nitromethyl ketone as a new zinc-binding group based on structural analysis of its complex with carboxypeptidase A” (Bioorg Med Chem Lett, 2009)", "key": {"Carboxypeptidase A1": {"biological_target": "T1, Carboxypeptidase A1 (Homo sapiens, UniProt P15085)", "T1 sequence (P15085 whole entry)": "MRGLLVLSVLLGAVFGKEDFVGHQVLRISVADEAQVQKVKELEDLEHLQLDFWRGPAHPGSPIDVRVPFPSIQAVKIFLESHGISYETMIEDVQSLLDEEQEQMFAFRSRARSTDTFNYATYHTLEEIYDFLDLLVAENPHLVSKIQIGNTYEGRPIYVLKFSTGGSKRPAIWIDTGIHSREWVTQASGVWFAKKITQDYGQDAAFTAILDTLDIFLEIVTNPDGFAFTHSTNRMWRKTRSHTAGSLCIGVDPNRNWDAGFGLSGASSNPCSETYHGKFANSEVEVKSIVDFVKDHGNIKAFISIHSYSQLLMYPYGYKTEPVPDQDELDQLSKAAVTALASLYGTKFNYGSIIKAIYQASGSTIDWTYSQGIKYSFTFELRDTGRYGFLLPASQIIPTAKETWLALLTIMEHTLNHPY", "assay": "Inhibition of Carboxypeptidase A assessed as amount of Cl-CPL consumed by UV spectrometer"}, "[1]": {"assay": "Dissociation constant, pKa of the compound", "assay_type": "physicochemical"}}}
{"smiles": "O=C(C[C@@H](Cc1ccccc1)C(=O)O)C[N+](=O)[O-]", "values": [{"measurement": "Ki", "setting": "Carboxypeptidase A1", "value": 0.16, "unit": "µM"}]}
{"smiles": "O=C(C[C@H](Cc1ccccc1)C(=O)O)C[N+](=O)[O-]", "values": [{"measurement": "Ki", "setting": "Carboxypeptidase A1", "value": 31, "unit": "µM"}]}
{"smiles": "O=C(O)C(CC(=O)C(F)(F)F)Cc1ccccc1", "note": "(racemic)", "values": [{"measurement": "Ki", "setting": "Carboxypeptidase A1", "value": 0.2, "unit": "µM"}]}
{"smiles": "CC(=O)CC(Cc1ccccc1)C(=O)O", "note": "(racemic)", "values": [{"measurement": "Ki", "setting": "Carboxypeptidase A1", "value": 207, "unit": "µM"}]}
{"smiles": "O=C(CBr)CC(Cc1ccccc1)C(=O)O", "note": "(racemic)", "values": [{"measurement": "Ki", "setting": "Carboxypeptidase A1", "value": 15, "unit": "µM"}]}
{"smiles": "O=C(CC(Cc1ccccc1)C(=O)O)C[N+](=O)[O-]", "note": "(racemic)", "values": [{"measurement": "Ki", "setting": "Carboxypeptidase A1", "value": 0.43, "unit": "µM"}]}
{"smiles": "O=C(O)C[N+](=O)[O-]", "note": "[NITROACETIC ACID]", "values": [{"measurement": "pKa", "setting": "[1]", "value": 1.68}]}
